Source: PubChem BioAssay (NCI)
Several values for one entry are separate records, joined by “and”; a condition that tells them apart may be missing. Equal entries are not always repeated.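 Test compounds were applied to cells in 96-well plates for 48 hours at 5 doses. Abbreviation: GI50, concentration required for 50% inhibition of growth. TGI is the concentration that stops growth completely.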

Legend:
Assay in all cases: NCI anticancer screen, dose series, 48 h
MALME-3M melanoma = tested on: MALME-3M melanoma
CCRF-CEM leukemia = tested on: CCRF-CEM leukemia
HCC-2998 colon = tested on: HCC-2998 colon
OVCAR-4 ovarian = tested on: OVCAR-4 ovarian
RPMI-8226 leukemia = tested on: RPMI-8226 leukemia
SNB-19 CNS = tested on: SNB-19 CNS
SK-MEL-5 melanoma = tested on: SK-MEL-5 melanoma
COLO 205 colon = tested on: COLO 205 colon
MCF7 breast = tested on: MCF7 breast
HOP-92 NSCLC = tested on: HOP-92 NSCLC

Row | SMILES | GI50 (MALME-3M melanoma) | TGI (MALME-3M melanoma) | GI50 (CCRF-CEM leukemia) | TGI (CCRF-CEM leukemia) | GI50 (HCC-2998 colon) | TGI (HCC-2998 colon) | GI50 (OVCAR-4 ovarian) [µM] | TGI (OVCAR-4 ovarian) | GI50 (RPMI-8226 leukemia) | TGI (RPMI-8226 leukemia) [µM] | GI50 (SNB-19 CNS) | TGI (SNB-19 CNS) [µM] | GI50 (SK-MEL-5 melanoma) | TGI (SK-MEL-5 melanoma) | GI50 (COLO 205 colon) | TGI (COLO 205 colon) | GI50 (MCF7 breast) [µM] | TGI (MCF7 breast) [µM] | GI50 (HOP-92 NSCLC) | TGI (HOP-92 NSCLC) [µM]
1 | O=C(CSC1CCc2ccccc21)N/N=C/c1ccccc1O (stereo not drawn) | 6.4 µM | 42.3 µM | 1.64 µM | 45.4 µM | 5.59 µM | 35.4 µM | 1.55 | 92.5 µM | 7.47 µM | 38.4 | 6.11 µM | > 100 | 1.85 µM | 5.17 µM | 5.87 µM | > 100 µM | 2.89 | > 100 | 2.61 µM | 37.5
2 | CSc1ccc2c(c1)C(=O)c1c-2n(CCCBr)c(=O)c2cc([N+](=O)[O-])ccc12 | 11.6 µM | > 100 µM | 0.451 µM | > 100 µM | 74.4 µM | > 100 µM | > 100 | > 100 µM | 4.11 µM | > 100 | 3.78 µM | > 100 | 3 µM | 25.8 µM | 17.8 µM | > 100 µM | 1.58 | > 100 | 0.356 µM | 10.3
3 | COc1cc2c3c(n(CCCOC(=O)C(F)(F)F)c(=O)c2cc1OC)-c1cc2c(cc1C3=O)OCO2 | 0.159 µM | > 100 µM | < 0.01 µM | > 100 µM | 0.131 µM | 0.539 µM | 0.208 | > 100 µM | < 0.01 µM | 0.0158 | – | > 100 | 0.402 µM | 1.24 µM | 0.519 µM | > 100 µM | – | > 29.2 | 0.122 µM | 33.4
4 | Cc1nn(C(=O)c2ccc(Cl)cc2)c2c1C(/C=C/c1ccccc1)SC(N)=N2 (stereo not drawn) | – | > 10 µM | – | > 10 µM | – | > 10 µM | – | > 10 µM | – | > 10 | – | > 10 | – | > 10 µM | – | > 10 µM | – | > 10 | – | > 10
5 | Cc1cc(C)c(/C=C2\C(=O)Nc3ccc(NC(=O)CCCCCCC(=O)NO)cc32)[nH]1 | 0.237 µM | > 27.4 µM | 0.311 µM | > 100 µM | 5.68 µM | > 100 µM | 8.34 | > 100 µM | > 100 µM | > 100 | 0.93 µM | > 100 | 0.335 µM | 14.7 µM | 0.479 µM | 2.32 µM | 0.529 | > 100 | 0.47 µM | > 100
6 | OCc1ccn2c1[C@@H](O)CC2 | – | > 100 µM | – | > 100 µM | – | > 100 µM | – | > 100 µM | – | > 100 | – | > 100 | – | > 100 µM | – | > 100 µM | – | > 100 | – | > 100
7 | CC[C@H]1CN2CCc3cc(OC)c(OC)cc3[C@@H]2C[C@@H]1C[C@H]1NCCc2c1[nH]c1ccc(O)cc21 | 0.047 µM and 0.336 µM | 0.113 µM and 0.744 µM and 0.184 µM | 0.0129 µM and 0.0207 µM | 0.239 µM and 0.054 µM and 0.326 µM | 0.0229 µM and 0.0287 µM | 0.0568 µM and 0.0856 µM and 0.0758 µM | 0.0138 | 0.0443 µM and 0.0436 µM and < 0.0124 µM | 0.0272 µM and 0.0305 µM | – | 0.0249 µM and 0.0636 µM | – | 0.0234 µM and 0.14 µM | 0.0553 µM and 0.294 µM and 0.0304 µM | 0.019 µM and 0.0187 µM | 0.0339 µM and 0.0347 µM and < 0.0117 µM | – | 0.137 | 0.0183 µM and 0.0337 µM | –
8 | c1ccc2c(c1)c1c(c3ccccc32)CN2CCCC2C1 (stereo not drawn) | – | 7.14 µM | – | 15.5 µM | – | 17.1 µM | – | > 100 µM | – | > 24.2 | – | > 22.5 | – | 11.2 µM | – | 13.8 µM | – | 11.4 | – | 13.4
9 | O=C1NC(=O)/C(=C\c2ccccc2)C2=C1CCCC2 | 2.53 µM | 9.11 µM | 3.7 µM | > 37.9 µM | 7.46 µM | 14 µM | 14.8 | 29.2 µM | 1.91 µM | – | 10.3 µM | 22.1 | 1.81 µM | 3.52 µM | 3.86 µM | 14.6 µM | 5.15 | 25 | 15.9 µM | 38.2
10 | O=S(=O)(Nc1ccc(F)cc1F)c1ccc(-c2cnc(C3CC3)o2)cc1 | 0.615 µM | 34.2 µM | 0.856 µM | > 100 µM | 2.39 µM | 27.3 µM | 3.13 | > 100 µM | 0.828 µM | 29.8 | 0.638 µM | > 100 | 0.666 µM | 12.9 µM | 0.767 µM | 17.1 µM | 0.398 | > 55.9 | 0.25 µM | 10.6
11 | Cc1cc(C)c(NC(=O)c2sc3nc4c(cc3c2N)CN(Cc2ccccc2)CC4)c(C)c1 | 3.44 µM | 42 µM | 3.16 µM | 59.7 µM | 5.33 µM | 38.4 µM | 6.72 | > 100 µM | 3.18 µM | 35.1 | 7.21 µM | > 100 | 1.47 µM | 11.5 µM | 2.98 µM | 10.1 µM | 1.61 | 32.2 | 0.877 µM | 42.6
12 | OCCCNc1nccc(-c2c(-c3ccc(F)cc3)nn3cc(C(F)(F)F)ccc23)n1 | 14.8 µM | > 25 µM | 11.4 µM | > 25 µM | > 23.4 µM | > 25 µM | 10.8 | > 25 µM | 22.9 µM | > 25 | > 25 µM | > 25 | 8.4 µM | > 25 µM | 12.5 µM | > 25 µM | 15.1 | > 25 | 8.1 µM | > 25
13 | C=C1C(=O)O[C@H]2[C@H]1CC/C(COC(=O)/C=C\C(=O)NCc1ccc(Cn3c(=O)sn(CCCC)c3=O)cc1)=C\CC[C@@]1(C)O[C@@H]21 | 1.35 µM | 2.71 µM | 0.275 µM | 1.63 µM | 1.64 µM | 3.19 µM | 0.626 | 1.87 µM | 0.274 µM | 0.949 | 1.53 µM | 2.93 | 1.4 µM | 2.71 µM | 0.581 µM | 2.37 µM | 0.365 | 2.03 | 0.655 µM | 2.04
